ChEMBL document CHEMBL3860041, “Synthesis, biological evaluation and molecular modeling study of some new methoxylated 2-benzylthio-quinazoline-4(3H)-ones as nonclassical antifolates” (Bioorg Med Chem Lett, 2016)
Converted amounts (≈) assume the structure as drawn.

How the values were obtained:
[1] = target: T1, Dihydrofolate reductase (Bos taurus, UniProt P00376); experiment: Inhibition of bovine liver DHFR preincubated for 2 mins followed by addition of FH2 as substrate and NADPH
T1 sequence (P00376 whole entry): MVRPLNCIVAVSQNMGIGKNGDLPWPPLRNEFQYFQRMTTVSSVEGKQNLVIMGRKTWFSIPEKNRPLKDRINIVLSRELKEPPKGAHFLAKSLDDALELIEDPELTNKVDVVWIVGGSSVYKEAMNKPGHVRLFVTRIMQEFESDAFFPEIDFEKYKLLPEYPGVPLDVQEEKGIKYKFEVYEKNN

[2] = system: Staphylococcus aureus; experiment: Antimicrobial activity against Staphylococcus aureus IFO 3060 at 200 ug/disc measured after 24 hrs by agar disc-diffusion method; assay type: functional; conditions: IFO 3060, 24 h, read-out: DIZ
[3] = system: Bacillus subtilis; experiment: Antimicrobial activity against Bacillus subtilis IFO 3007 at 200 ug/disc measured after 24 hrs by agar disc-diffusion method; assay type: functional; conditions: IFO 3007, 24 h, read-out: DIZ
[4] = system: Escherichia coli; experiment: Antimicrobial activity against Escherichia coli IFO 3301 at 200 ug/disc measured after 24 hrs by agar disc-diffusion method; assay type: functional; conditions: IFO 3301, 24 h, read-out: DIZ
[5] = system: Pseudomonas aeruginosa; experiment: Antimicrobial activity against Pseudomonas aeruginosa IFO 3448 at 200 ug/disc measured after 24 hrs by agar disc-diffusion method; assay type: functional; conditions: IFO 3448, 24 h, read-out: DIZ
[6] = system: Candida albicans; experiment: Antimicrobial activity against Candida albicans IFO 0583 at 200 ug/disc measured after 48 hrs by agar disc-diffusion method; assay type: functional; conditions: IFO 0583, 48 h, read-out: DIZ
[7] = system: Staphylococcus aureus; experiment: Antimicrobial activity against Staphylococcus aureus IFO 3060 measured after 24 hrs by microdilution method; assay type: functional
[8] = system: Bacillus subtilis; experiment: Antimicrobial activity against Bacillus subtilis IFO 3007 measured after 24 hrs by microdilution method; assay type: functional
[9] = system: Escherichia coli; experiment: microbe, parasite or virus in culture; conditions: IFO 3301, 24 h
Description: Antimicrobial activity against Escherichia coli IFO 3301 measured after 24 hrs by microdilution method

[10] = system: Pseudomonas aeruginosa; experiment: Antimicrobial activity against Pseudomonas aeruginosa IFO 3448 measured after 24 hrs by microdilution method; assay type: functional

| Compound | IC50 [1] | zone of inhibition at 200 µg/disc [2] | zone of inhibition at 200 µg/disc [3] | zone of inhibition at 200 µg/disc [4] | zone of inhibition at 200 µg/disc [5] | further results |
| --- | --- | --- | --- | --- | --- | --- |
| COc1cc(CSc2nc3ccc(Cl)cc3c(=O)n2-c2ccc(Cl)cc2)cc(OC)c1OC | 2000 nM |  |  |  |  |  |
| COc1ccc(CSc2nc3cc(OC)c(OC)cc3c(=O)n2-c2ccccc2)cc1 | 4000 nM | 24 mm | 26 mm | 14 mm | 8 mm | zone of inhibition at 200 µg/disc [6]: 12 mm; MIC ([7]; IFO 3060, 24 h): 2 µg/mL (≈ 4.6 µM); MIC ([8]; IFO 3007, 24 h): 2 µg/mL (≈ 4.6 µM); MIC [9]: 8 µg/mL (≈ 18.4 µM) |
| COc1ccc(CSc2nc3ccc(C)cc3c(=O)n2-c2ccc(OC)cc2OC)cc1 | 700 nM |  |  |  |  |  |
| COc1cc(CSc2nc3ccc(C)cc3c(=O)n2-c2ccc(C)cc2)cc(OC)c1OC | 1500 nM |  |  |  |  |  |
| COc1ccc(CSc2nc3ccc(Cl)cc3c(=O)n2-c2ccccc2)cc1 | 20 nM | 14 mm | 16 mm | 8 mm | 8 mm | zone of inhibition at 200 µg/disc [6]: 8 mm |
| COc1ccc(CSc2nc3ccc(C)cc3c(=O)n2-c2ccccc2)cc1 | 100 nM | 18 mm | 22 mm | 16 mm | 12 mm | zone of inhibition at 200 µg/disc [6]: 8 mm; MIC ([7]; IFO 3060, 24 h): 4 µg/mL (≈ 10.3 µM); MIC ([8]; IFO 3007, 24 h): 2 µg/mL (≈ 5.15 µM); MIC [9]: 8 µg/mL (≈ 20.6 µM) |
| COc1ccc(-n2c(SCc3cc(OC)c(OC)c(OC)c3)nc3cc(OC)c(OC)cc3c2=O)c(OC)c1 | 3000 nM |  |  |  |  |  |
| COc1ccc(CSc2nc3cc(OC)c(OC)cc3c(=O)n2-c2ccc(C)cc2)cc1 | 2000 nM |  |  |  |  |  |
| O=C(O)c1cn(C2CC2)c2cc(N3CCNCC3)c(F)cc2c1=O [CIPROFLOXACIN] |  | 32 mm | 35 mm | 38 mm | 36 mm | MIC ([7]; IFO 3060, 24 h): 0.5 µg/mL (≈ 1.51 µM); MIC ([8]; IFO 3007, 24 h): 0.5 µg/mL (≈ 1.51 µM); MIC ([10]; IFO 3448, 24 h): 1 µg/mL (≈ 3.02 µM) |
| COc1cc2nc(SCc3cc(OC)c(OC)c(OC)c3)n(-c3ccc(C)cc3)c(=O)c2cc1OC | 1200 nM |  |  |  |  |  |
| COc1ccc(CSc2nc3ccc(Cl)cc3c(=O)n2-c2ccc(OC)cc2OC)cc1 | 1000 nM | 15 mm | 18 mm | 8 mm | 8 mm | zone of inhibition at 200 µg/disc [6]: 8 mm; MIC ([7]; IFO 3060, 24 h): 8 µg/mL (≈ 17.1 µM); MIC ([8]; IFO 3007, 24 h): 4 µg/mL (≈ 8.53 µM) |
| GENTAMICIN |  |  |  |  |  | MIC [7]: 2 µg/mL; MIC [8]: 2 µg/mL; MIC [10]: 1 µg/mL |
| COc1ccc(CSc2nc3ccc(Cl)cc3c(=O)n2-c2ccc(C)cc2)cc1 | 4000 nM |  |  |  |  |  |
| COc1ccc(CSc2nc3cc(OC)c(OC)cc3c(=O)n2-c2ccc(Cl)cc2)cc1 | 6000 nM | 20 mm | 18 mm | 15 mm | 8 mm | zone of inhibition at 200 µg/disc [6]: 8 mm; MIC ([7]; IFO 3060, 24 h): 4 µg/mL (≈ 8.53 µM); MIC ([8]; IFO 3007, 24 h): 4 µg/mL (≈ 8.53 µM); MIC [9]: 8 µg/mL (≈ 17.1 µM) |
| COc1ccccc1-n1c(SCc2cc(OC)c(OC)c(OC)c2)nc2ccc(C)cc2c1=O | 1000 nM |  |  |  |  |  |
| COc1ccc(CSc2nc3cc(OC)c(OC)cc3c(=O)n2-c2ccccc2OC)cc1 | 600 nM |  |  |  |  |  |
| COc1ccc(CSc2nc3ccc(C)cc3c(=O)n2-c2ccc(OC)cc2)cc1 | 1200 nM |  |  |  |  |  |
| COc1ccc(CSc2nc3ccc(C)cc3c(=O)n2-c2ccccc2OC)cc1 | 900 nM |  |  |  |  |  |
